Entries after “also recorded” stand apart in the source; their conditions may differ.
Key:
[1] = system: 5/6 nephrectomized model rats; conditions: 5/6 nephrectomized rats, in feed
Description: Slc:Wistar rat, 5/6 nephrectomized
(1) The 5/6 nephrectomized model rats were weighed, and classified into three groups.
(2) Each group was acclimatized with MR stock feed, under ad libitum feeding and ad libitum water drinking. The feeding cage was conditioned at room temperature 22±2° C., under illumination 12 hours a day.
(3) The animals were then bred with the prepared special feed under ad libitum feeding and ad libitum water drinking. The feeding cage was conditioned similarly to the acclimatization period, at room temperature 22±2° C., under illumination 12 hours a day.
(4) On Days 0, 7, 14, 21, and 28, rats were bred in metabolic cages for 24 hours. The animals were fed with Labo MR stock on Day 0, and with the special feed on days thereafter, during which the amounts of feed consumption, water consumption, urine and feces were measured, and the urine and feces were sampled.
(5) The animals were taken out of the metabolic cage and weighed, followed by blood collection with a winged needle. Approximately 400 μL of blood was collected, incubated at room temperature for one hour, and then centrifuged (1,700×g, 20 min) to obtain serum.
(6) On the final Day 28, the animals were fasted throughout the day, and then dissected. […] The collected blood was centrifuged (1,700×g, 20 min) to obtain serum. Liver, kidney, spleen, small intestine, and stomach of the rats that were exsanguinated to death were sampled. The small intestine and stomach were dissected, removed contents, and rinsed twice with PBS. The above sequence of procedures was repeated three times to assign six animals to each group. […]
The above four items were measured with use of Hitachi 7180 automatic analyzer.
ALT was measured only for blood samples collected on the last day.

[2] = Phosphorus adsorption experiment, Example 2-3 (particle 1 vs lanthanum carbonate); type: binding; conditions: one hour
Description: Three mmol/L aqueous phosphoric acid solutions with pH 2.5 and pH 7.0 were prepared. The pH was adjusted with Bis-Tris HCl buffer solution and glycine-HCl buffer solution (phosphoric acid, sodium chloride, and glycine from FUJIFILM Wako Pure Chemical Corporation; Bis-Tris from Dojindo Laboratories).
A freely selectable amount of particle 1 was added to each of the aqueous solutions.
Each of these dispersions was kept stirred at 38° C. for one hour in a thermostatic chamber.
Also, a freely selectable amount of a commercially available lanthanum carbonate reagent (from Nikki Corporation) was added in the same way, and each dispersion was kept stirred at 38° C. for one hour in a thermostatic chamber.
Each solution was then centrifuged (10,000×g, 5 min) for solid-liquid separation, and the supernatant was collected.
Phosphoric acid remained in the collected supernatant was evaluated by colorimetry, with use of a commercially available phosphoric acid detection reagent (Trade name: PiBlue Phosphate Assay Kit; POPB-500) that contains molybdenum blue and malachite green.
The reciprocal of the mass of the particle required to entirely adsorb 3 mmol of phosphoric acid was defined as adsorptivity to phosphorus, and was illustrated in FIG. 6.

[3] = system: adenine nephropathy model rats; assay: Animal experiment (2) (Example 7): adenine nephropathy model rats fed with cerium-containing feed, blood analysis; type: in vivo
From the text: Adenine nephropathy model rats were fed with a dispersion (cerium oxide dispersion) that contains cerium(III) ion as a cerium compound containing trivalent cerium, and cerium oxide.
• Rat: Slc:Wistar rat (male) delivered at 12 weeks of age (Japan SLC, Inc.) • Powder feed: AIN-93G powder feed (Funabashi Farm Co., Ltd.) • Feed for laboratory animal: Labo MR Stock (Nosan Corporation) • Adenine: (Tokyo Chemical Industry Co., Ltd.) • Cerium oxide dispersion: Cerium oxide dispersion prepared in [Preparation of Cerium Oxide Dispersion] (aqueous dispersion of cerium oxide with 10.0% by mass cerium oxide, mole ratio of cerium oxide:cerium(III)=9:1 • Cerium(III) chloride: cerium(III) chloride heptahydrate (Nikki Corporation) • Water or hot water: water passed through a water purifier, and boiled in a pot • Mixer for feed preparation: Compact Kitchen Machine MUM4415JP (Bosch GmbH) • Manual sausage maker: sausage machine (COM4SPORT) • Wing blood collection needle for animal experiment: CL-4597 (CLEA Japan, Inc.) [Preparation of Cerium Oxide Dispersion]
A special feed was prepared by modifying step (ii) for preparing the feed for normal group, as described below. […] Approximately 100 mL of hot water was then added evenly.
(§1) A special feed was prepared by modifying steps (i) and (ii) for (2) Feed for Adenine Group, as described below. (i) (Ade+Dispersion (A)): Weighed was 246.1 g of the powder feed, which was then stirred with a kitchen machine. (ii) (Ade+Dispersion (A)): While keeping the feed under stirring, 0.625 g of adenine was added in small portions, the content was stirred with the kitchen machine for 3 minutes, the feed adhered on the wall surface was scraped off, and the content was stirred again for 3 minutes. Next, while keeping the feed under stirring, 32.7 g of cerium oxide dispersion was added in small portions, the content was stirred with the kitchen machine for 3 minutes, the feed adhered on the wall surface was scraped off, and the content was stirred again for 3 minutes. Approximately 70 mL of hot water was then added evenly.
as §1, with “(ii)” for “A special feed was prepared by modifying steps (i) and (ii) for (2) Feed for Adenine Group, as described below. (i) (Ade+Dispersion (A)): Weighed was 246.1 g of the powder feed, which was then stirred with a kitchen machine. (ii)”, “(B)):” for “(A)):”, “98.2” for “32.7”, “12” for “70”
(1) Rats were weighed, and classified into four groups.
FIGS. 12 to 15 illustrate graphs plotting on the ordinates test values of serum creatinine (CRE), blood urea nitrogen (BUN), serum phosphorus (IP), or alanine aminotransferase (ALT) of the blood samples collected at the time of the dissection, and plotting on the abscissae total molar amount of cerium per 100 g of feed.
The effect of cerium(III) chloride was examined with use of the following feeds (4-1) to (4-3), in place of the (3-1) Feed for adenine+cerium oxide dispersion (A) group, and the (3-2) Feed for adenine+cerium oxide dispersion (B) group described in Preparation of Feeds according to Example 7-1. […]

[4] = adenine nephropathy rats, in feed, blood collected at dissection

SMILES: O=C([O-])[O-].O=C([O-])[O-].O=C([O-])[O-].[La+3].[La+3] [lanthanum carbonate]
- blood urea nitrogen (BUN) ([1]; Days 0-28): slightly increase as compared with the cerium oxide-added groups
- serum creatinine (CRE) ([1]; Days 0-28): slightly increase as compared with the cerium oxide-added groups
- serum ALT (GPT) level ([1]; blood of the last day): distinctively increased as compared with those of the non-added group
- mass of the particle required to entirely adsorb 3 mmol of phosphoric acid ([2]; pH 2.5, 38° C.): 1.15 g
- mass of the particle required to entirely adsorb 3 mmol of phosphoric acid ([2]; pH 7.0, 38° C.): 5.95 g

SMILES: O.O.O.O.O.O.O.[Ce+3].[Cl-].[Cl-].[Cl-] [cerium chloride, cerium(III) chloride heptahydrate]
- effects on CRE, BUN and IP relative to the cerium oxide dispersion, per molar amount of cerium ([3]; adenine group normalized at 100): 4 to 9 times
- alanine aminotransferase (ALT) [3, 4]: equivalent to that in the normal group; also recorded: equivalent to the level of the normal group
- blood urea nitrogen (BUN) [3, 4]: declines depending on the cerium chloride content (mol) in 100 g of feed; also recorded: decrease as the cerium chloride content in the feed increased
- serum creatinine (CRE) [3, 4]: declines depending on the cerium chloride content (mol) in 100 g of feed; also recorded: decrease as the cerium chloride content in the feed increased
- serum phosphorus (IP) [3, 4]: declines depending on the cerium chloride content (mol) in 100 g of feed; also recorded: decrease as the cerium chloride content in the feed increased
